Laboratory results: ChEMBL document CHEMBL4219122, “Synthesis and biological evaluation of histone deacetylase and DNA topoisomerase II-Targeted inhibitors” (Bioorg Med Chem, 2018)
The source made the active and inactive calls. The rule behind the calls is not given here.

Tests used:
[1] = molecular target: T1, Protein deacetylase HDAC6 (Mus musculus, UniProt Q9Z2V5); experiment: Inhibition of recombinant mouse HDAC6 expressed in HEK293T cells co-expressing mouse HDA2 using Ac-KGLGK(Ac)-MCA as substrate after 30 mins in presence of DTT by fluorescence assay
T1 sequence (Q9Z2V5 whole entry): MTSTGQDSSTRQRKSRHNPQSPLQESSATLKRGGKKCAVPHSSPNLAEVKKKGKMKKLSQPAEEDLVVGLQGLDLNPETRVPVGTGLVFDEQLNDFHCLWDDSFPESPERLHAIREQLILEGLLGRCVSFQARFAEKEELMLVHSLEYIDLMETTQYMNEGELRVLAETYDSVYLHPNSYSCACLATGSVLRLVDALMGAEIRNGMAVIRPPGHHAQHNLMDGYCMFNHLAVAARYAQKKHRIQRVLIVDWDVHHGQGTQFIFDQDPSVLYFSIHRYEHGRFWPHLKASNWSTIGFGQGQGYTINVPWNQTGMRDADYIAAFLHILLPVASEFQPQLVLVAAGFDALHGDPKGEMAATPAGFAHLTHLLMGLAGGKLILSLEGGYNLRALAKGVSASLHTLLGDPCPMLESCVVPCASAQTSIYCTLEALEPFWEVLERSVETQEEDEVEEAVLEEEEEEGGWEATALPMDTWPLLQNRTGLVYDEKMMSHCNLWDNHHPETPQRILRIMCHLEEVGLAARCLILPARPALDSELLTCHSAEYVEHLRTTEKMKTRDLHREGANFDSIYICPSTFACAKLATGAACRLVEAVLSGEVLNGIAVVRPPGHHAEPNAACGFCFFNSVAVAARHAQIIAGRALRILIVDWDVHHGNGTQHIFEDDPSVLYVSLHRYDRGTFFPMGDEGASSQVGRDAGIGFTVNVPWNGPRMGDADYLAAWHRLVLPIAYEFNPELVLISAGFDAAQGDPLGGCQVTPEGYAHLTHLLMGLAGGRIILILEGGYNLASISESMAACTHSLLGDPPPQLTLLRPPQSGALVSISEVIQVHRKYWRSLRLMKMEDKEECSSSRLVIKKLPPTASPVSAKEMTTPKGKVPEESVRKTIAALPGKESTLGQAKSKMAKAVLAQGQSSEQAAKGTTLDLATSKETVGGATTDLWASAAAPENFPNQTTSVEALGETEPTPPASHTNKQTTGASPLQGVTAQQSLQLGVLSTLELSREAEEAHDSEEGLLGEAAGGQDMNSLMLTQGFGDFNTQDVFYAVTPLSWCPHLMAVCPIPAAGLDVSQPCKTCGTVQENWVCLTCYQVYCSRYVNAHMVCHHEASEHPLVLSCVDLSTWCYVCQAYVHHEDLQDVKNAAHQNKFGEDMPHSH

HCT-116 = experiment: Growth inhibition of human HCT116 cells after 48 hrs by sulforhodamine B-based colorimetric assay; assay type: functional, cell-based; settings: HCT-116, 48 h; for GI50: read-out: GI50
MCF7 = experiment: Growth inhibition of human MCF7 cells after 48 hrs by sulforhodamine B-based colorimetric assay; assay type: functional, cell-based; settings: MCF7, 48 h; for GI50: read-out: GI50
[2] = molecular target: T2, DNA topoisomerase 2-alpha (Homo sapiens, UniProt P11388); experiment: Inhibition of human placenta topoisomerase 2alpha assessed as reduction in pBR322 supercoiled DNA relaxation after 30 mins by ethidium bromide staining based agarose gel electrophoresis
DU-145 = experiment: Growth inhibition of human DU145 cells after 48 hrs by sulforhodamine B-based colorimetric assay; assay type: functional, cell-based; settings: DU-145, 48 h; for GI50: read-out: GI50
Histone deacetylase 1 [3] = molecular target: T3, Histone deacetylase 1 (Homo sapiens, UniProt Q13547); experiment: Inhibition of recombinant human HDAC1 expressed in HEK293T cells using Ac-KGLGK(Ac)-MCA as substrate after 30 mins in presence of DTT by fluorescence assay
Histone deacetylase 1 [4] = molecular target: T3, Histone deacetylase 1; experiment: Inhibition of recombinant human HDAC1 expressed in HEK293T cells at 10 uM using Ac-KGLGK(Ac)-MCA as substrate after 30 mins in presence of DTT by fluorescence assay
[5] = molecular target: T2, DNA topoisomerase 2-alpha; experiment: Inhibition of human topoisomerase-2 alpha-mediated kinetoplast DNA decatenation at 200 uM after 30 mins by ethidium bromide staining based agarose gel electrophoresis

T2 sequence (P11388 whole entry): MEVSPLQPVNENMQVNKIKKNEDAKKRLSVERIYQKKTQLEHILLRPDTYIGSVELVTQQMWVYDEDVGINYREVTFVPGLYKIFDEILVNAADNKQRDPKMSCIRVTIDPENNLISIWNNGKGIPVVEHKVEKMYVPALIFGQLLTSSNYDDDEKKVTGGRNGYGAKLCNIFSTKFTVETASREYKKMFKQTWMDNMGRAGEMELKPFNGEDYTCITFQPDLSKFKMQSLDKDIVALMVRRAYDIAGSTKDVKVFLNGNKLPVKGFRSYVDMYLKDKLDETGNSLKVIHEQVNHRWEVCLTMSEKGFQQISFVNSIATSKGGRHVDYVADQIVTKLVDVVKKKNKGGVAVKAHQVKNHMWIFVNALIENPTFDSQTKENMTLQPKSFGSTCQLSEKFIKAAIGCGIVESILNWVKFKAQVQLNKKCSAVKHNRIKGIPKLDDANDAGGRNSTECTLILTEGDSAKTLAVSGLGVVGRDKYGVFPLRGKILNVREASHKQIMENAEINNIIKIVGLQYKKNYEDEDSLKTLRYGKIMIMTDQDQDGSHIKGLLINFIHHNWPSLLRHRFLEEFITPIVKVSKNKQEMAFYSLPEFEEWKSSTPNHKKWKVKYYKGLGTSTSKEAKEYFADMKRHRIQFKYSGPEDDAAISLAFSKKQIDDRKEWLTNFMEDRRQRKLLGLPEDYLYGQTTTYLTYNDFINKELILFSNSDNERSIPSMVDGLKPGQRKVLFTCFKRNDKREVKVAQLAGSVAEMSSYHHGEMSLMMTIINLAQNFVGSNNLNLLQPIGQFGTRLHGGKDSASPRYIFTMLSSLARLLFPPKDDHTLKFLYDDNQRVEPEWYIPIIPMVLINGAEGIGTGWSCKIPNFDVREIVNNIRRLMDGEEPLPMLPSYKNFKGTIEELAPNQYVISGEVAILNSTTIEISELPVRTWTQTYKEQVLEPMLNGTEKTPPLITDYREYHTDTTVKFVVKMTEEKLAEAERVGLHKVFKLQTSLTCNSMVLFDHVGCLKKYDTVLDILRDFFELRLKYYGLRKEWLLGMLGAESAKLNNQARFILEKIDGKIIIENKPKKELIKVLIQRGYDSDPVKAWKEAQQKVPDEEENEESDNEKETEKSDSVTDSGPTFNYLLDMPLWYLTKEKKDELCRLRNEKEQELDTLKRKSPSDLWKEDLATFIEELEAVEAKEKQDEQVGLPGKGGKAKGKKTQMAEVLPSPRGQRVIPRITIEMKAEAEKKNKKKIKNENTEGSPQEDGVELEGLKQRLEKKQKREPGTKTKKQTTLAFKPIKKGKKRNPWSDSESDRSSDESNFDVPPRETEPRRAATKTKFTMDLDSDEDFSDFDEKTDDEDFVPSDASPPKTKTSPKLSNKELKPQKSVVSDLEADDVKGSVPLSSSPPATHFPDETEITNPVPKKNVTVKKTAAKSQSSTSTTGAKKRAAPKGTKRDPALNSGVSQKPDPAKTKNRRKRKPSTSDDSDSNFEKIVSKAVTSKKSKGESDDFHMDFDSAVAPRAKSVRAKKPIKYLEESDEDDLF
T3 sequence (Q13547 whole entry): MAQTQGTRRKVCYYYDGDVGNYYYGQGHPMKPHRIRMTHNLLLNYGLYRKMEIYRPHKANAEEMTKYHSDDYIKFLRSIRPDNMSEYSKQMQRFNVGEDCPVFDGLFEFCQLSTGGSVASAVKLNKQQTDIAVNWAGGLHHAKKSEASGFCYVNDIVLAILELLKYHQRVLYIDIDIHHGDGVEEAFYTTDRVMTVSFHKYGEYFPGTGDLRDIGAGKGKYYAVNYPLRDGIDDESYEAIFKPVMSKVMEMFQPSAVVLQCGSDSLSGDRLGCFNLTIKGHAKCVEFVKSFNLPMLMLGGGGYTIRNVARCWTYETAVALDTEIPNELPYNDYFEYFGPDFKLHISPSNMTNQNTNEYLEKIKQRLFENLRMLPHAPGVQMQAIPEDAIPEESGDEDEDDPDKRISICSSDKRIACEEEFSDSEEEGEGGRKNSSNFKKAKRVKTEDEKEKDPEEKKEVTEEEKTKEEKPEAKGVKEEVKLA

IC50 [1] [nM] | GI50 (HCT-116) [µM] | GI50 (MCF7) [µM] | IC50 [2] [µM] | GI50 (DU-145) [µM] | IC50 (Histone deacetylase 1 [3]) [nM] | SMILES | other results
> 10000 | 3.63 | 3.31 | 19.1 | 3.72 | > 10000 | COc1ccc(C2([C@H]3C[C@H](n4cc(C)c(=O)[nH]c4=O)O[C@@H]3CO[Si](C)(C)C(C)(C)C)SCCCS2)cc1OC | –
590 | 26.3 | 5.37 | – | 49 | 2800 | Cc1cn([C@@H]2C[C@H](C3(c4ccc(NC(=O)CCCCC(=O)NO)cc4)SCCCS3)[C@@H](CO[Si](C)(C)C(C)(C)C)O2)c(=O)[nH]c1=O | –
110 | 17.4 | 15.4 | – | 20.9 | 900 | Cc1cn([C@H]2C[C@H](C3(c4ccc(NC(=O)CCCCCC(=O)NO)cc4)SCCCS3)[C@@H](CO[Si](C)(C)C(C)(C)C)O2)c(=O)[nH]c1=O | –
– | – | – | 55.3 | – | – | COc1ccc(C2([C@H]3CC(=O)O[C@@H]3CO[Si](C)(C)C(C)(C)C)SCCCS2)cc1OC | –
560 | 26.3 | 5.5 | – | 14.8 | 2500 | Cc1cn([C@H]2C[C@H](C3(c4ccc(NC(=O)CCCCC(=O)NO)cc4)SCCCS3)[C@@H](CO[Si](C)(C)C(C)(C)C)O2)c(=O)[nH]c1=O | –
81 | 14.8 | 17.8 | – | 28.8 | 590 | Cc1cn([C@@H]2C[C@H](C3(c4ccc(NC(=O)CCCCCC(=O)NO)cc4)SCCCS3)[C@@H](CO[Si](C)(C)C(C)(C)C)O2)c(=O)[nH]c1=O | –
– | – | – | – | – | – | Cc1cn([C@H]2C[C@H](C3(c4ccc(NC(=O)CCCCCCC(=O)O)cc4)SCCCS3)[C@@H](CO[Si](C)(C)C(C)(C)C)O2)c(=O)[nH]c1=O | inhibition (Histone deacetylase 1 [4]): inactive; IC50 (HCT-116): 12.3 µM; IC50 (MCF7): 12.3 µM; IC50 (DU-145): 15.5 µM
– | – | – | – | – | – | COc1cc([C@@H]2c3cc4c(cc3[C@@H](O[C@@H]3O[C@@H]5CO[C@@H](C)O[C@H]5[C@H](O)[C@H]3O)[C@H]3COC(=O)[C@H]23)OCO4)cc(OC)c1O | inhibition [5]: Active
– | – | – | 3 | – | 1200 | CC(/C=C/C(=O)NO)=C\C(C)C(=O)c1ccc(C2([C@H]3CC(=O)O[C@@H]3CO[Si](C)(C)C(C)(C)C)SCCCS2)cc1 (stereo not given in full) | –
– | – | – | 26.1 | – | – | CC(C)(C)[Si](C)(C)OC[C@H]1OC(=O)C[C@@H]1C1(c2ccccc2)SCCCS1 | –
